In ChEMBL document CHEMBL4130451, “Design and Synthesis of N-Aryl Phenoxyethoxy Pyridinones as Highly Selective and CNS Penetrant mGlu3 NAMs” (ACS Med Chem Lett, 2017):
Values after ≈ are worked out from the molar mass of the structure shown. Active and inactive are the calls of the source. The rule behind the calls is not given here.

How the values were obtained:
[1] = target: 5-hydroxytryptamine receptor 1A (Homo sapiens) (UniProt P08908); assay: Inhibition of human 5-HT1A receptor at 10 uM relative to control
Rattus norvegicus [2] = species on record: Rattus norvegicus; assay: Inhibition of rat central GABA-A receptor flunitrazepam site at 10 uM relative to control
Cytochrome P450 2D6 = Cytochrome P450 2D6 (Homo sapiens, UniProt P10635); assay: Inhibition of CYP2D6 in human liver microsomes using dextromethorphan as substrate after 15 mins in presence of NADPH by LC/MS/MS analysis; format: ADME
Rattus norvegicus [3] = species on record: Rattus norvegicus; assay: Inhibition of rat central GABA-A receptor muscimol site at 10 uM relative to control
[4] = target: B2 bradykinin receptor (Homo sapiens) (UniProt P30411); assay: Inhibition of human bradykinin B2 receptor at 10 uM relative to control
[5] = target: Metabotropic glutamate receptor 8 (Rattus norvegicus) (UniProt P70579); assay: Negative allosteric modulation of rat mGlu8 receptor expressed in HEK/GIRK cells assessed as inhibition of glutamate induced-calcium mobilization preincubated for 2.3 mins followed by glutamate addition measured for 2.6 mins by Fluo-4 AM dye based fluorescence assay; format: functional, cell-based
Sequence of Metabotropic glutamate receptor 8 (Rattus norvegicus) (P70579 whole entry): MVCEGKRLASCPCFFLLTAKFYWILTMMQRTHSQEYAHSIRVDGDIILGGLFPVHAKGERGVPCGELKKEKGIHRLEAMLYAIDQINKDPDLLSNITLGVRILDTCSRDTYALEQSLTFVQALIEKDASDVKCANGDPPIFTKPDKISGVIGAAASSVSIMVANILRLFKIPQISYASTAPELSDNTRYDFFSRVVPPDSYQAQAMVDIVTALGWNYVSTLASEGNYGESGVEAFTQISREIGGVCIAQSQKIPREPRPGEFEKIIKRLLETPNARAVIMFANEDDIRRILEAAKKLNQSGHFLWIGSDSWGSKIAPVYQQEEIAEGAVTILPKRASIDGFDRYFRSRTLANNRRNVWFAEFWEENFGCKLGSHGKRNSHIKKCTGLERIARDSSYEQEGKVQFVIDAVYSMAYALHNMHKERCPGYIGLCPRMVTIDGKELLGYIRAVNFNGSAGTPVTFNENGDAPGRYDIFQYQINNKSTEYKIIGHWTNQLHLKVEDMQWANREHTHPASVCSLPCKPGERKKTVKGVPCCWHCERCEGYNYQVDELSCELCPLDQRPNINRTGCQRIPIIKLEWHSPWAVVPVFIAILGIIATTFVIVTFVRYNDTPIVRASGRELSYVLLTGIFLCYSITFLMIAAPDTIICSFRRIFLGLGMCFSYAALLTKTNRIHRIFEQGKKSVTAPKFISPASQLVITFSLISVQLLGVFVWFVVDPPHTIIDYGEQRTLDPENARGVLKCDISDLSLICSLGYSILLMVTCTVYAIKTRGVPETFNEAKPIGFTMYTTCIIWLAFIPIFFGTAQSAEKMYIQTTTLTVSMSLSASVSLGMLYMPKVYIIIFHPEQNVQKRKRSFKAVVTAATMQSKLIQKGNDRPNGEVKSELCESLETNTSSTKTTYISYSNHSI

[6] = target: Histamine H2 receptor (Homo sapiens) (UniProt P25021); assay: Inhibition of human histamine H2 receptor at 10 uM relative to control
Sequence of Histamine H2 receptor (Homo sapiens) (P25021 whole entry): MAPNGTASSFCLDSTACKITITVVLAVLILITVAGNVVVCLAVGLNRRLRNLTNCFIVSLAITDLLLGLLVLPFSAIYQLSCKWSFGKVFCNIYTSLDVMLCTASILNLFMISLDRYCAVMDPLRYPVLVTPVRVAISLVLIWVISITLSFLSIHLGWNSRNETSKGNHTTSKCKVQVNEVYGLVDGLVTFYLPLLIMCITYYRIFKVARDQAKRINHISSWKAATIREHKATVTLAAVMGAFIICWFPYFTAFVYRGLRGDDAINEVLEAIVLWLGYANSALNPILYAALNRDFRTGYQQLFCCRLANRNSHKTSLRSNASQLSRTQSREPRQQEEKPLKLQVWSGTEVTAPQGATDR

[7] = target: Kappa-type opioid receptor (Homo sapiens) (UniProt P41145); assay: Inhibition of human kappa opioid receptor at 10 uM relative to control
[8] = Fraction unbound in rat plasma at 5 uM after 4 hrs by equilibrium dialysis based LC/MS/MS analysis; format: ADME, cell-free
[9] = target: Metabotropic glutamate receptor 1 (Homo sapiens) (UniProt Q13255); assay: Negative allosteric modulation of human mGlu1 receptor expressed in TREX293 cells assessed as inhibition of glutamate induced-calcium mobilization preincubated for 2.3 mins followed by glutamate addition measured for 2.6 mins by Fluo-4 AM dye based fluorescence assay; format: functional, cell-based
[10] = target: Metabotropic glutamate receptor 3 (Rattus norvegicus) (UniProt P31422); assay: Negative allosteric modulation of rat mGlu3 receptor expressed in TREX cells coexpressing Galpha15 assessed as inhibition of glutamate induced-calcium mobilization by measuring minimum glutamate response preincubated for 2.3 mins followed by glutamate addition measured for 2.6 mins by Fluo-4 AM dye based fluorescence assay relative to glutamate; format: functional, cell-based
[11] = target: Estrogen receptor (Homo sapiens) (UniProt P03372); assay: Inhibition of human ERalpha receptor at 10 uM relative to control
[12] = target: Acetylcholine receptor subunit alpha (Homo sapiens) (UniProt P02708); assay: Inhibition of human alpha1 nAChR bungarotoxin site at 10 uM relative to control
Cytochrome P450 2C9 = Cytochrome P450 2C9 (Homo sapiens, UniProt P11712); assay: Inhibition of CYP2C9 in human liver microsomes using diclofenac as substrate after 15 mins in presence of NADPH by LC/MS/MS analysis; format: ADME
Sequence of Cytochrome P450 2C9 (P11712 whole entry): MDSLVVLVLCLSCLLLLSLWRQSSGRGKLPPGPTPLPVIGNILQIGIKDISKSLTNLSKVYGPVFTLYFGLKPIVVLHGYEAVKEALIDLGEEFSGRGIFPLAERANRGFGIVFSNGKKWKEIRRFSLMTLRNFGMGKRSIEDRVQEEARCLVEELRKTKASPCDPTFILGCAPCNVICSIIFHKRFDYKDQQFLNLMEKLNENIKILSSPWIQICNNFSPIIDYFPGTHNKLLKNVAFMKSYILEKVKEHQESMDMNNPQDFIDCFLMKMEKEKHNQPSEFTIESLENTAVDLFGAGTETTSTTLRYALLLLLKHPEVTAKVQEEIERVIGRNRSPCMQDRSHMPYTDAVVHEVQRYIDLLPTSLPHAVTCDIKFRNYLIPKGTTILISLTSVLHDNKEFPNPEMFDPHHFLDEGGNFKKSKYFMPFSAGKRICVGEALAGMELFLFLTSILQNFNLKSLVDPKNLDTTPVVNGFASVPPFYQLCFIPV

[13] = target: Sodium-dependent noradrenaline transporter (Homo sapiens) (UniProt P23975); assay: Inhibition of human NET at 10 uM relative to control
Sequence of Sodium-dependent noradrenaline transporter (Homo sapiens) (P23975 whole entry): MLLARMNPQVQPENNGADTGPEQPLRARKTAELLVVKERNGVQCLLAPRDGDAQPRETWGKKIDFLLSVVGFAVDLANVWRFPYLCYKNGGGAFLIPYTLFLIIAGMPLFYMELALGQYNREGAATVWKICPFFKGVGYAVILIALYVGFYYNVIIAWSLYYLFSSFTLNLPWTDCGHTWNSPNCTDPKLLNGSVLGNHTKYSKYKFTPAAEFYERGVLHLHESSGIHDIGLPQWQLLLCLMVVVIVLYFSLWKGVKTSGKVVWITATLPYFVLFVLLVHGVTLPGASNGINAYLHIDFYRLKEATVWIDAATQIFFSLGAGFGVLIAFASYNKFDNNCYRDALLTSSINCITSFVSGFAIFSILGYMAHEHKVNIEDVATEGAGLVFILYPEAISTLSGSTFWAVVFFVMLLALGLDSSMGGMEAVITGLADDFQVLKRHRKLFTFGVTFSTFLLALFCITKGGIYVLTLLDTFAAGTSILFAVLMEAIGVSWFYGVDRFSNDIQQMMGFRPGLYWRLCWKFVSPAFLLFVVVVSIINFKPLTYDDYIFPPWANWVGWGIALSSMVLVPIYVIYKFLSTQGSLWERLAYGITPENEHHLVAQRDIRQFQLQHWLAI

[14] = target: Androgen receptor (Rattus norvegicus) (UniProt P15207); assay: Inhibition of rat androgen receptor at 10 uM relative to control
Rattus norvegicus [15] = species on record: Rattus norvegicus; assay: Inhibition of rat N-type calcium channel […] at 10 uM relative to control
Rattus norvegicus [16] = species on record: Rattus norvegicus; assay: Inhibition of rat GABA receptor at 10 uM relative to control
[17] = target: Endothelin receptor type B (Homo sapiens) (UniProt P24530); assay: Inhibition of human endothelin B receptor at 10 uM relative to control
[18] = Unbound brain to plasma concentration ratio in mouse; format: ADME; conditions: read-out: K(p,uu,brain)
[19] = Ratio of drug uptake in Harlan CD-1 mouse brain at 3 mg/kg, ip to IC50 for negative allosteric modulation of rat mGlu3 receptor expressed in TREX cells coexpressing Galpha15; format: ADME, organism-based; conditions: in vivo
[20] = target: Muscarinic acetylcholine receptor M2 (Homo sapiens) (UniProt P08172); assay: Inhibition of human muscarinic M2 receptor at 10 uM relative to control
[21] = target: Histamine H1 receptor (Homo sapiens) (UniProt P35367); assay: Inhibition of human histamine H1 receptor at 10 uM relative to control
[22] = target: Muscarinic acetylcholine receptor M1 (Homo sapiens) (UniProt P11229); assay: Inhibition of human muscarinic M1 receptor at 10 uM relative to control
[23] = target: B1 bradykinin receptor (Homo sapiens) (UniProt P46663); assay: Inhibition of human bradykinin B1 receptor at 10 uM relative to control
[24] = target: Sigma non-opioid intracellular receptor 1 (Homo sapiens) (UniProt Q99720); assay: Inhibition of human sigma 1 receptor at 10 uM relative to control
Sequence of Sigma non-opioid intracellular receptor 1 (Homo sapiens) (Q99720 whole entry): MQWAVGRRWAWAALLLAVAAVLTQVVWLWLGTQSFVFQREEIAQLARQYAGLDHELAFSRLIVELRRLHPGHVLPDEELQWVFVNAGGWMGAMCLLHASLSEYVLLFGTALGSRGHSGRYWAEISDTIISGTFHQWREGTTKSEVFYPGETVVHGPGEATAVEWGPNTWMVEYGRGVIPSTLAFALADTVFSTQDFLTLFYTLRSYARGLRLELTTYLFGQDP

[25] = target: Histamine H3 receptor (Homo sapiens) (UniProt Q9Y5N1); assay: Inhibition of human histamine H3 receptor at 10 uM relative to control
Sequence of Histamine H3 receptor (Homo sapiens) (Q9Y5N1 whole entry): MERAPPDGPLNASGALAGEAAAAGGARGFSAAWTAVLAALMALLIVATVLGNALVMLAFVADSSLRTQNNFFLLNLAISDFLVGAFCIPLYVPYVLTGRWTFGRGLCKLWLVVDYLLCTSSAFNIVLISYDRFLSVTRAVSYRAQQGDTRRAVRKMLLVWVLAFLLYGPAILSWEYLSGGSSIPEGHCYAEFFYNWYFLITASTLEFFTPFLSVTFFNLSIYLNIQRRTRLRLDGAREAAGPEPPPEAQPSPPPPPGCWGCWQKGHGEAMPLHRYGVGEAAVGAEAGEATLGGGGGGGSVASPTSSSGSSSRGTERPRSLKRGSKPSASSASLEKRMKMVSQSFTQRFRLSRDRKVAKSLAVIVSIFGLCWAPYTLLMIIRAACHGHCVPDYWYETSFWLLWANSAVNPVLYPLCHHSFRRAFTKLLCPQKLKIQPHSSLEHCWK

Homo sapiens = species on record: Homo sapiens; assay: Inhibition of human dopamine D4.2 receptor at 10 uM relative to control
[26] = target: Endothelin-1 receptor (Homo sapiens) (UniProt P25101); assay: Inhibition of human endothelin A receptor at 10 uM relative to control
[27] = target: Muscarinic acetylcholine receptor M3 (Homo sapiens) (UniProt P20309); assay: Inhibition of human muscarinic M3 receptor at 10 uM relative to control
Sequence of Muscarinic acetylcholine receptor M3 (Homo sapiens) (P20309 whole entry, looked up): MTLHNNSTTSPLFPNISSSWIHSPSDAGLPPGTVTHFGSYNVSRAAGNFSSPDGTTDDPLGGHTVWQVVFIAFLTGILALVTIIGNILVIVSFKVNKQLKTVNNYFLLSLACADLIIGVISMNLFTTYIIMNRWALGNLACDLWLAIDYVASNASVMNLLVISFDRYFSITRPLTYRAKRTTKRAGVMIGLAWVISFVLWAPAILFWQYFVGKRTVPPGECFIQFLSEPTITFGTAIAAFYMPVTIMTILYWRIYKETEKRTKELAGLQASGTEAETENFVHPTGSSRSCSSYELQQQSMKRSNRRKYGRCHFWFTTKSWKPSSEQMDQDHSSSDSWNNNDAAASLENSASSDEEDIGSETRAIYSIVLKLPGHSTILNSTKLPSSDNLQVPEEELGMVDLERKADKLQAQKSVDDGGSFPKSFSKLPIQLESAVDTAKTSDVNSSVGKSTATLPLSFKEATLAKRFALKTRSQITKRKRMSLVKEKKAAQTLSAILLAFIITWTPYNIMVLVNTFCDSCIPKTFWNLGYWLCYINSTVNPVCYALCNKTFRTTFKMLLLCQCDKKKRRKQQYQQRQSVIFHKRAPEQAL

[28] = target: Adenosine receptor A2a (Homo sapiens) (UniProt P29274); assay: Inhibition of human adenosine A2a receptor at 10 uM relative to control
[29] = Unbound brain-to-plasma concentration ratio in rat; format: ADME; conditions: read-out: K(p,uu,brain)
[30] = Fraction unbound in human plasma at 5 uM after 4 hrs by equilibrium dialysis based LC/MS/MS analysis; format: ADME, cell-free
hERG (KCNH2) = hERG (KCNH2) (Homo sapiens, UniProt Q12809); assay: Inhibition of human ERG at 10 uM relative to control
[31] = target: L-type calcium channel, dihydropyridine site (Rattus norvegicus, UniProt P22002+P27732+Q02485); assay: Inhibition of rat L-type calcium channel dihydropyridine site at 10 uM relative to control; format: protein assay
[32] = Brain to plasma partition coefficient, Kp of the compound in Harlan CD-1 mouse at 3 mg/kg, ip by LC/MS-MS analysis; format: ADME, organism-based
[33] = target: Neuropeptide Y receptor type 2 (Homo sapiens) (UniProt P49146); assay: Inhibition of human […] Y2 receptor at 10 uM relative to control
Sequence of Neuropeptide Y receptor type 2 (Homo sapiens) (P49146 whole entry): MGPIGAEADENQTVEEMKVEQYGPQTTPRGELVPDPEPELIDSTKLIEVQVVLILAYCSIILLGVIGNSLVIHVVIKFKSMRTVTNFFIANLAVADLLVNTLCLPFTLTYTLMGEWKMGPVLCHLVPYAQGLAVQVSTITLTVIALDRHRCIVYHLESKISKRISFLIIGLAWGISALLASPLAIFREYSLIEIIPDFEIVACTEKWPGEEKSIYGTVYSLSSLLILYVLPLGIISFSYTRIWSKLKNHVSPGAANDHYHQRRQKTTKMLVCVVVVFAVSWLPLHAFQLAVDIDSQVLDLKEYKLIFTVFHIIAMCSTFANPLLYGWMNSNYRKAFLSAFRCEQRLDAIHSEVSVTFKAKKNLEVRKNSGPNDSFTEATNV

[34] = target: Substance-P receptor (Homo sapiens) (UniProt P25103); assay: Inhibition of human tachykinin NK1 receptor at 10 uM relative to control
[35] = target: Metabotropic glutamate receptor 3 (Rattus norvegicus, UniProt P31422); assay: Negative allosteric modulation of rat mGlu3 receptor expressed in TREX cells coexpressing Galpha15 assessed as inhibition of glutamate induced-calcium mobilization preincubated for 2.3 mins followed by glutamate addition measured for 2.6 mins by Fluo-4 AM dye based fluorescence assay; format: functional, cell-based
Sequence of Metabotropic glutamate receptor 3 (P31422 whole entry): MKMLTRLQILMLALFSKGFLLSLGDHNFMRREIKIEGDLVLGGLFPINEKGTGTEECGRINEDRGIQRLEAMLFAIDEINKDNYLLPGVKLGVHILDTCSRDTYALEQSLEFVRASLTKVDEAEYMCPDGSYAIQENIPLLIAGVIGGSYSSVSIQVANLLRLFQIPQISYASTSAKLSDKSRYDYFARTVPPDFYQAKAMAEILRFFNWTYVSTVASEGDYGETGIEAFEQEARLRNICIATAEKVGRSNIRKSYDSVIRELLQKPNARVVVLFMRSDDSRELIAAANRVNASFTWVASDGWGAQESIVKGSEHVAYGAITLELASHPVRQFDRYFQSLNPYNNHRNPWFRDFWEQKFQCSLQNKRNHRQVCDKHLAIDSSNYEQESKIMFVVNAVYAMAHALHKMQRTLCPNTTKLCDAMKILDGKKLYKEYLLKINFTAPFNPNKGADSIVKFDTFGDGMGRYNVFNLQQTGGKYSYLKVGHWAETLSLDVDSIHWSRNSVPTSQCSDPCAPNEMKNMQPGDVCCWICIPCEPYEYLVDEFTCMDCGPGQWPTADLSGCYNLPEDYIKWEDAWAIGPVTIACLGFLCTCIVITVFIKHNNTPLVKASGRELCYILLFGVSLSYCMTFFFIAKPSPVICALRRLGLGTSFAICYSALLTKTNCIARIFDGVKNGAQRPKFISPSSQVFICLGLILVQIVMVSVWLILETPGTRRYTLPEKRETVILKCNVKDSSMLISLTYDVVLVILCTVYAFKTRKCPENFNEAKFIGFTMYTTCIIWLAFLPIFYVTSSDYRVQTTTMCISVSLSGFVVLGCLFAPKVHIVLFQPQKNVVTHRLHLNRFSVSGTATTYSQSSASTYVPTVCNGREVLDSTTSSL

[36] = Kinetic solubility of the compound in PBS at pH 7.4; format: physicochemical; conditions: read-out: Kinetic_solubility
[37] = target: Beta-2 adrenergic receptor (Homo sapiens) (UniProt P07550); assay: Inhibition of human adrenergic beta2 receptor at 10 uM relative to control

For `C[C@@H](COc1ccn(-c2ccc(F)cc2)c(=O)c1)Oc1ccccc1`, the inhibition [1] was > 50%, the inhibition (Rattus norvegicus [2]) was > 50% and the IC50 (Cytochrome P450 2D6) was > 30 µM. For the same compound, the inhibition (Rattus norvegicus [3]) was > 50%, the inhibition [4] was > 50% and the inhibition [5] was “inactive”. For the same compound, the inhibition [6] was > 50%, the inhibition [7] was > 50% and the fraction unbound at 4 h, 5 µM [8] was 0.18. The inhibition [9] was “inactive”, the Emin [10] was 3.33% and the inhibition [11] was > 50%. For the same compound, the inhibition [12] was > 50%, the IC50 (Cytochrome P450 2C9) was > 30 µM and the inhibition [13] was > 50%. The inhibition [14] was > 50%, the inhibition (Rattus norvegicus [15]) was > 50% and the inhibition (Rattus norvegicus [16]) was > 50%. For the same compound, the inhibition [17] was > 50%, the Kp uu [18] was 0.26 and the Ratio [19] was 5. For the same compound, the inhibition [20] was > 50%, the inhibition [21] was > 50% and the inhibition [22] was > 50%. For the same compound, the inhibition [23] was > 50%, the inhibition [24] was > 50% and the inhibition [25] was > 50%. For the same compound, the inhibition (Homo sapiens) was > 50%, the inhibition [26] was > 50% and the inhibition [27] was > 50%. The inhibition [28] was > 50%, the Kp uu [29] was 0.4 and the fraction unbound at 4 h, 5 µM [30] was 0.18. The inhibition at 10 µM (hERG (KCNH2)) was > 50%, the inhibition at 10 µM [31] was > 50% and the Kp [32] was 1.2. The inhibition [33] was > 50%, the inhibition [34] was > 50% and the IC50 [35] was 0.245 µM. For the same compound, the solubility kinetic [36] was 98 µM (≈ 33.3 µg/mL) and the inhibition [37] was > 50%.
